Experimental data published in ChEMBL document CHEMBL5150061, “Design and Synthesis of Fibroblast Growth Factor Receptor (FGFR) and Histone Deacetylase (HDAC) Dual Inhibitors for the Treatment of Cancer” (J Med Chem, 2022).

Assays:
Histone deacetylase 1 = Histone deacetylase 1 (Homo sapiens, UniProt Q13547); experiment: Inhibition of HDAC1 (unknown origin)
[1] = target: T1, Protein deacetylase HDAC6 (Homo sapiens, UniProt Q9UBN7); experiment: Inhibition of HDAC6 (unknown origin)
T1 sequence (Q9UBN7 whole entry): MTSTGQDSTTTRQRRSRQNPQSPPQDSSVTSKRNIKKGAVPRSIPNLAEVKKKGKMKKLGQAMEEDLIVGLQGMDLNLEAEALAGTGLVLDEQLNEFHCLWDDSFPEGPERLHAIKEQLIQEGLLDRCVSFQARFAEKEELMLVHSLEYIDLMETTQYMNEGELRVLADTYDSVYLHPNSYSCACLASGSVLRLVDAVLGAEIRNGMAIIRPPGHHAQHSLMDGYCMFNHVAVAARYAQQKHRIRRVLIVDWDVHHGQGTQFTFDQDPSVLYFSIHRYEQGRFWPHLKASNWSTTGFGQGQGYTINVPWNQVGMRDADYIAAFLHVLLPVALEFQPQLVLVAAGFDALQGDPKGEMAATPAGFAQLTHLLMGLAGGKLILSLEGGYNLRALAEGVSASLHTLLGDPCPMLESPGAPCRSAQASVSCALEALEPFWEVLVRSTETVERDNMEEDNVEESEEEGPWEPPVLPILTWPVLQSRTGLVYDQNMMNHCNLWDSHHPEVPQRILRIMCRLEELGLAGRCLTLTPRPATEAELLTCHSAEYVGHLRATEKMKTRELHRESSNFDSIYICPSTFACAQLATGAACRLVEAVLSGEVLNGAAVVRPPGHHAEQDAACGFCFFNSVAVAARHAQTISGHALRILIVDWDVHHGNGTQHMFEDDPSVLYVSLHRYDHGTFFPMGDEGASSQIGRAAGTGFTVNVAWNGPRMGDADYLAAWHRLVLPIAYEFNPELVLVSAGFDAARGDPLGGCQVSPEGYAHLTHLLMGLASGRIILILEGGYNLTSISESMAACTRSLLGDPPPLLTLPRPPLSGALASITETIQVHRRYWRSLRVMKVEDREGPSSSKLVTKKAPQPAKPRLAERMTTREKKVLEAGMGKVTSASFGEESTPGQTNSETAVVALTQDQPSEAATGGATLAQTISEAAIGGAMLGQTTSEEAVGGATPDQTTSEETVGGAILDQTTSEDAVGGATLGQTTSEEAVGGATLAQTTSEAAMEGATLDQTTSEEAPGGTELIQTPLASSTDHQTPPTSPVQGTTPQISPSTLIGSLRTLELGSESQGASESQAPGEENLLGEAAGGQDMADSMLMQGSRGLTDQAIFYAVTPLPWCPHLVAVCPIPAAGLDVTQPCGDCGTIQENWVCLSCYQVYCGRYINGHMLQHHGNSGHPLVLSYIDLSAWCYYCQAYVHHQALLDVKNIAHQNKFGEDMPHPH

[2] = target: Fibroblast growth factor receptor 2 (Homo sapiens, UniProt P21802); experiment: Inhibition of FGFR2 (unknown origin)
Chain of Fibroblast growth factor receptor 2 (P21802 whole entry): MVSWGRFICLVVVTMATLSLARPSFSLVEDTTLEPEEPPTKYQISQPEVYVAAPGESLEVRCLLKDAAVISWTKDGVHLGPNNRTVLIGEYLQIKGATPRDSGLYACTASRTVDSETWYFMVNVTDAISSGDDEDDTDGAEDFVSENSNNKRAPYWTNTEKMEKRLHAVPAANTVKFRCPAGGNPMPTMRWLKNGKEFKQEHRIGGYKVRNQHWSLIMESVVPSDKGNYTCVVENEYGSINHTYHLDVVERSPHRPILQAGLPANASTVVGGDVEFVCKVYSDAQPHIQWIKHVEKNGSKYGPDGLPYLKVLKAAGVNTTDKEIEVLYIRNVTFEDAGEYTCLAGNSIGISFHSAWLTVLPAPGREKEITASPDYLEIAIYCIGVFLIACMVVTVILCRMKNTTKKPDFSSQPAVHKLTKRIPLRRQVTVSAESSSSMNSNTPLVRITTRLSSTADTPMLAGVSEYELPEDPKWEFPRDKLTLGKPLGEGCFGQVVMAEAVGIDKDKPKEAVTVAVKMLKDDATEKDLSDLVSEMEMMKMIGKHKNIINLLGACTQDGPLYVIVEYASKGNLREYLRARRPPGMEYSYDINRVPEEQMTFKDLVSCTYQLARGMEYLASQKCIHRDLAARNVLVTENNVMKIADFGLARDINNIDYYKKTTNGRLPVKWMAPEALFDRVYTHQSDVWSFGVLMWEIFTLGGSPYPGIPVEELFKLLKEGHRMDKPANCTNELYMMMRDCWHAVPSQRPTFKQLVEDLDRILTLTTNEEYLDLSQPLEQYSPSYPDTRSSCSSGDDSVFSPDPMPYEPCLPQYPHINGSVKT

[3] = target: Fibroblast growth factor receptor 3 (Homo sapiens, UniProt P22607); experiment: Inhibition of FGFR3 (unknown origin)
Chain of Fibroblast growth factor receptor 3 (P22607 whole entry): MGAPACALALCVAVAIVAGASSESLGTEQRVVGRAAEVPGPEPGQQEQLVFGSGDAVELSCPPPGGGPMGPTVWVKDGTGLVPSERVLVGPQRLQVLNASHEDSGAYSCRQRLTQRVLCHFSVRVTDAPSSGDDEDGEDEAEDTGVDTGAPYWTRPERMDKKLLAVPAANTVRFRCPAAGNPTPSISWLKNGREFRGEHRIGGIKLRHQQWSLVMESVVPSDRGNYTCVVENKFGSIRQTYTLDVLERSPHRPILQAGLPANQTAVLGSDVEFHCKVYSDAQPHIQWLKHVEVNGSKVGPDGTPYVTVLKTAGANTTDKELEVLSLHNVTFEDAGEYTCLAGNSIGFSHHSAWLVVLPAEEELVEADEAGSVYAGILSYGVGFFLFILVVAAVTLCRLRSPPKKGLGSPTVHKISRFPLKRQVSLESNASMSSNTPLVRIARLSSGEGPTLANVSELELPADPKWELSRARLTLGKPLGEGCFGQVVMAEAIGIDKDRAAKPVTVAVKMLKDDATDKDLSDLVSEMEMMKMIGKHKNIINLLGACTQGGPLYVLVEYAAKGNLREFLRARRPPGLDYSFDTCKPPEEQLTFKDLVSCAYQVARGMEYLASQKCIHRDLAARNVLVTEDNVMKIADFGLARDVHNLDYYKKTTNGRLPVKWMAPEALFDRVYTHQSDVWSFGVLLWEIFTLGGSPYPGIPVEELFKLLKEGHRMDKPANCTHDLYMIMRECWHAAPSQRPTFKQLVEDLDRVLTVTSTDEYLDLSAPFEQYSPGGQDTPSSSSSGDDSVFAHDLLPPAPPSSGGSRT

[4] = target: Fibroblast growth factor receptor 4 (Homo sapiens, UniProt P22455); experiment: Inhibition of FGFR4 (unknown origin)
Chain of Fibroblast growth factor receptor 4 (P22455 whole entry): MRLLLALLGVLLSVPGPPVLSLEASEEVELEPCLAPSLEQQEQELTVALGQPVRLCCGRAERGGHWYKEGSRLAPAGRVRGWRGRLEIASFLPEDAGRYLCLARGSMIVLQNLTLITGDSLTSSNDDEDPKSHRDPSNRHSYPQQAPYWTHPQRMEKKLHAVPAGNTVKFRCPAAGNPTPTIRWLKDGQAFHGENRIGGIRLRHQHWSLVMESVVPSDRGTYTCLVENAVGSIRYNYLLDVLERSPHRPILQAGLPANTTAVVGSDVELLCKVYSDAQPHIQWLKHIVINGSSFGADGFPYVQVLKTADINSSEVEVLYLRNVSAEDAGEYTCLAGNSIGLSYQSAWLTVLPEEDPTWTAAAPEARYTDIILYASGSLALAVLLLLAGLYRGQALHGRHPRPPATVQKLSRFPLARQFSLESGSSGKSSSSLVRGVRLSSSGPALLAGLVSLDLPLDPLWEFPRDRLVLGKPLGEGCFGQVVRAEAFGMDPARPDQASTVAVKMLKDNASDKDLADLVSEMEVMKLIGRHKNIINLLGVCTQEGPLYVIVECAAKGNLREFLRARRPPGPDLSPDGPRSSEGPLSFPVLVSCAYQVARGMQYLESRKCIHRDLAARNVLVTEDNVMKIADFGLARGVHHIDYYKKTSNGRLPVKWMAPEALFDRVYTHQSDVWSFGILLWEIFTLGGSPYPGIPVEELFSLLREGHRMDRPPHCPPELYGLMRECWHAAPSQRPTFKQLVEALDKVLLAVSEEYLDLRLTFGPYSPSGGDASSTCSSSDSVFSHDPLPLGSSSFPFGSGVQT

Histone deacetylase 2 = Histone deacetylase 2 (Homo sapiens, UniProt Q92769); experiment: Inhibition of HDAC2 (unknown origin)
Chain of Histone deacetylase 2 (Q92769 whole entry): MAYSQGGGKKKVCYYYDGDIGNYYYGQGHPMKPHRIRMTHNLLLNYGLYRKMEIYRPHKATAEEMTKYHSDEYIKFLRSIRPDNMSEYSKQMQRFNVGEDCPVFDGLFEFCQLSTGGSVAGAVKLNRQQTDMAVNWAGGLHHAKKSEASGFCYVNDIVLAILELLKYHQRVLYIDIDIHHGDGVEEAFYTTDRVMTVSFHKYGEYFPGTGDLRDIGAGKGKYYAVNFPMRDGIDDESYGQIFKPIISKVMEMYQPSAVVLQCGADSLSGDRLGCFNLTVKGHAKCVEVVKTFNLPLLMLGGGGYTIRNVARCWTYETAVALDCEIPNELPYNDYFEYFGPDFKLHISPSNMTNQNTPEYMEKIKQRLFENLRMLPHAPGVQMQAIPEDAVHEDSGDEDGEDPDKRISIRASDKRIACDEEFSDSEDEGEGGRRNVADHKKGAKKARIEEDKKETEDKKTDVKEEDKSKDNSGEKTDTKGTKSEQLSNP

Histone deacetylase 8 = target: T2, Histone deacetylase 8 (Homo sapiens, UniProt Q9BY41); experiment: Inhibition of HDAC8 (unknown origin)
T2 sequence (Q9BY41 whole entry): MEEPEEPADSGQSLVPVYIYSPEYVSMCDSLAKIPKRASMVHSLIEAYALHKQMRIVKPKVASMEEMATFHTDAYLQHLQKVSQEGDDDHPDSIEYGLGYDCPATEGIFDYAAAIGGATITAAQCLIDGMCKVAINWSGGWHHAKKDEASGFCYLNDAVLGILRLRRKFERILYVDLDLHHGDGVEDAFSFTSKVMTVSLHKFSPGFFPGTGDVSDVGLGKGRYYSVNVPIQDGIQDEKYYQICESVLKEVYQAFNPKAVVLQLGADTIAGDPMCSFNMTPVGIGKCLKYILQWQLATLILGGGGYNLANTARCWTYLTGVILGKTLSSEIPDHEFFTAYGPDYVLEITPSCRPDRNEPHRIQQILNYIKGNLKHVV

[5] = Half life in Sprague-Dawley rat at 2 mg/kg, iv measured for 24 hrs by LC-MS/MS-18 analysis; assay type: ADME, organism-based; settings: in vivo
[6] = Tmax in Sprague-Dawley rat at 2 mg/kg, iv measured for 24 hrs by LC-MS/MS-18 analysis; assay type: ADME, organism-based; settings: in vivo
[7] = Cmax in Sprague-Dawley rat at 2 mg/kg, iv measured for 24 hrs by LC-MS/MS-18 analysis; assay type: ADME, organism-based; design: time 24 hrs, dose 2 mg/kg, route iv; settings: in vivo
[8] = AUC (0 to infinity) in Sprague-Dawley rat at 2 mg/kg, iv measured for 24 hrs by LC-MS/MS-18 analysis; assay type: ADME, organism-based; design: time 24 hrs, dose 2 mg/kg, route iv; settings: in vivo
[9] = Clearance in Sprague-Dawley rat at 2 mg/kg, iv measured for 24 hrs by LC-MS/MS-18 analysis; assay type: ADME, organism-based; settings: in vivo
[10] = Volume of distribution at steady state in Sprague-Dawley rat at 2 mg/kg, iv measured for 24 hrs by LC-MS/MS-18 analysis; assay type: ADME, organism-based; settings: in vivo, read-out: Vdss
[11] = Half life in Sprague-Dawley rat at 5 mg/kg, ip measured for 24 hrs by LC-MS/MS-18 analysis; assay type: ADME, organism-based; settings: in vivo
[12] = Tmax in Sprague-Dawley rat at 5 mg/kg, ip measured for 24 hrs by LC-MS/MS-18 analysis; assay type: ADME, organism-based; settings: in vivo
[13] = Cmax in Sprague-Dawley rat at 5 mg/kg, ip measured for 24 hrs by LC-MS/MS-18 analysis; assay type: ADME, organism-based; design: time 24 hrs, dose 5 mg/kg, route ip; settings: in vivo
[14] = AUC (0 to infinity) in Sprague-Dawley rat at 5 mg/kg, ip measured for 24 hrs by LC-MS/MS-18 analysis; assay type: ADME, organism-based; design: time 24 hrs, dose 5 mg/kg, route ip; settings: in vivo
[15] = Oral bioavailability in Sprague-Dawley rat at 5 mg/kg measured for 24 hrs by LC-MS/MS-18 analysis; assay type: ADME, organism-based; settings: in vivo, route ip
[16] = Half life in Sprague-Dawley rat at 30 mg/kg, po measured for 24 hrs by LC-MS/MS-18 analysis; assay type: ADME, organism-based; settings: in vivo
[17] = Tmax in Sprague-Dawley rat at 30 mg/kg, po measured for 24 hrs by LC-MS/MS-18 analysis; assay type: ADME, organism-based; settings: in vivo
[18] = Cmax in Sprague-Dawley rat at 30 mg/kg, po measured for 24 hrs by LC-MS/MS-18 analysis; assay type: ADME, organism-based; design: dose 30 mg/kg, time 24 hrs, route po; settings: in vivo
[19] = AUC (0 to infinity) in Sprague-Dawley rat at 30 mg/kg, po measured for 24 hrs by LC-MS/MS-18 analysis; assay type: ADME, organism-based; design: dose 30 mg/kg, time 24 hrs, route po; settings: in vivo
[20] = Oral bioavailability in Sprague-Dawley rat at 30 mg/kg measured for 24 hrs by LC-MS/MS-18 analysis; assay type: ADME, organism-based; settings: in vivo
[21] = Toxicity in BALB/c nude mouse xenografted with human HCT-116 cells assessed as reduction in body weight at 15 to 30 mg/kg/day, po administered for 18 days and measured every 3 days; assay type: organism-based; settings: in vivo, 432 h, dose 15-30 mg/kg/day, time 18 day
[22] = Toxicity in BALB/c nude mouse xenografted with human SNU-16 cells assessed as reduction in body weight at 15 to 30 mg/kg/day, ip administered for 18 days and measured every 3 days; assay type: organism-based; settings: in vivo, 432 h, dose 15-30 mg/kg/day, time 18 day

Chain of Histone deacetylase 1 (Q13547 whole entry): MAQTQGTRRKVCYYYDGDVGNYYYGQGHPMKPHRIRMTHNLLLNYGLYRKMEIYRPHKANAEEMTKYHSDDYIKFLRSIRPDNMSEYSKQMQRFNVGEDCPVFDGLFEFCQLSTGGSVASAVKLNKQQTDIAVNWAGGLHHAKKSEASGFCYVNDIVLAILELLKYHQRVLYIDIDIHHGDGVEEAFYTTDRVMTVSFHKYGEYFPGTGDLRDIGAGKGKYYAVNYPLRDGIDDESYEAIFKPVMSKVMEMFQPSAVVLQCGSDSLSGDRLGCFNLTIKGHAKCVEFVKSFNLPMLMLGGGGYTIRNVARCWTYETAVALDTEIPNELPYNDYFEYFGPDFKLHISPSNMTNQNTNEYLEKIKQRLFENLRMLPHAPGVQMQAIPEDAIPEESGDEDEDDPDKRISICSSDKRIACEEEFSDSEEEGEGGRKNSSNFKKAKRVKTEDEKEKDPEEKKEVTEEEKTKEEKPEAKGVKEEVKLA

COc1cc(OC)cc(N(CCNC(C)C)c2ccc3ncc(-c4cnn(CCCCCCC(=O)NO)c4)nc3c2)c1
IC50 (Histone deacetylase 1): 1.3 nM
IC50 [1]: 2.6 nM
IC50 [2]: 1.2 nM
IC50 [3]: 0.46 nM
IC50 [4]: 1.4 nM
IC50 (Histone deacetylase 2): 1.6 nM
IC50 (Histone deacetylase 8): 13 nM
half-life [5]: 0.98 h
Tmax [6]: 4.8 min
Cmax [7]: 1120 ng/mL
AUC(0-inf) [8]: 425 ng·h/mL
clearance [9]: 80.6 mL/min/kg
Vd [10]: 2.79 L/kg
half-life [11]: 1.83 h
Tmax [12]: 2 h
Cmax [13]: 102 ng/mL
AUC(0-inf) [14]: 491 ng·h/mL
bioavailability [15]: 43.8%
half-life [16]: 0.77 h
Tmax [17]: 4 h
Cmax [18]: 443 ng/mL
AUC(0-inf) [19]: 1560 ng·h/mL
bioavailability [20]: 24.8%
Activity [21]: Non-Toxic
Activity [22]: Non-Toxic
